# From the supplement of paper PMC10307832
# Assays:
# Experiment in all cases: relative viability (nuclei count vs DMSO), 5 days (fraction); higher = more cells survive
# [1] = compound: CC(O)(CS(=O)(=O)c1ccc(F)cc1)C(=O)Nc1ccc(C#N)c(C(F)(F)F)c1 [Bicalutamide] + CC1(C)CCC(c2ccc(Cl)cc2)=C(CN2CCN(c3ccc(C(=O)NS(=O)(=O)c4ccc(N[C@H](CCN5CCOCC5)CSc5ccccc5)c(S(=O)(=O)C(F)(F)F)c4)cc3)CC2)C1 [Navitoclax] (partner 0.5 µM)
# Method in brief: (§1)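 Lung cancer cell lines in 1536-well plates were dosed by pin tool the day after seeding, either with one drug alone or with a fixed anchor-drug dose plus five library-drug doses (not always all listed) in √10 steps. After 5 days, cells were fixed and their nuclei stained in one step (final 0.05% Triton X-100, 1% formaldehyde, 1 ug/ml Hoechst), then counted on 4× images. Relative viability is the nuclei count in treated wells divided by that in vehicle wells. Values are medians of duplicate plates.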
# [2] = compound: CC(O)(CS(=O)(=O)c1ccc(F)cc1)C(=O)Nc1ccc(C#N)c(C(F)(F)F)c1 [Bicalutamide] + Nc1ncn([C@H]2C[C@H](O)[C@@H](CO)O2)c(=O)n1 [Decitabine] (partner 2 µM)
# Method in brief: as §1
# [3] = compound: C(C(=O)C(=O)O)Br [Bromopyruvate] + Nc1ncn([C@H]2C[C@H](O)[C@@H](CO)O2)c(=O)n1 [Decitabine] (partner 2 µM)
# Method in brief: as §1
# [4] = compound: C(C(=O)C(=O)O)Br [Bromopyruvate] + COc1cc2c(Oc3ccc(NC(=O)C4(C(=O)Nc5ccc(F)cc5)CC4)cc3F)ccnc2cc1OCCCN1CCOCC1 [Foretinib] (partner 0.25 µM)
# Method in brief: as §1
Cell Line,relative viability ([1]; first compound 0.08 µM),relative viability ([1]; first compound 0.253 µM),relative viability ([1]; first compound 0.8 µM),relative viability ([1]; first compound 2.53 µM),relative viability ([2]; first compound 0.08 µM),relative viability ([2]; first compound 0.253 µM),relative viability ([2]; first compound 0.8 µM),relative viability ([2]; first compound 2.53 µM),relative viability ([3]; first compound 1 µM),relative viability ([3]; first compound 3.162 µM),relative viability ([3]; first compound 10 µM),relative viability ([3]; first compound 31.62 µM),relative viability ([3]; first compound 100 µM),relative viability ([4]; first compound 1 µM),relative viability ([4]; first compound 3.162 µM),relative viability ([4]; first compound 10 µM),relative viability ([4]; first compound 31.62 µM),relative viability ([4]; first compound 100 µM)
201T,1.18,1.24,1.18,1.22,0.87,0.847,0.857,0.889,0.882,0.835,0.849,0.85,0.928,1.15,1.08,1.29,1.21,1.29
A549,1.33,1.16,1.36,1.08,0.351,0.271,0.259,0.248,0.225,0.271,0.36,0.308,0.266,0.949,0.935,1.07,0.989,1.06
A-427,0.986,1.03,0.98,0.927,0.608,0.533,0.666,0.562,0.581,0.567,0.612,0.631,0.568,0.983,1.21,1.18,0.799,0.885
ABC-1,,,,,1.25,0.929,1.23,0.847,0.888,,,,0.885,1.09,0.941,1.14,0.833,0.95
BEN,0.0525,0.0535,0.0851,0.0653,0.736,0.658,0.838,0.7,0.726,0.685,0.773,0.617,0.674,0.975,0.668,0.542,0.741,0.591
CAL-12T,1.22,1.39,1.35,1.09,,,,,,,,,,1.14,1.05,1.09,1.07,1.06
COR-L23,1.17,1.02,1.11,0.898,0.476,0.389,0.455,0.367,0.407,0.404,0.469,0.379,0.281,0.905,0.914,1.02,0.971,0.434
COR-L 105,0.694,0.696,0.726,0.703,0.765,0.6,0.698,0.63,0.59,0.674,0.75,0.706,0.525,0.924,1.18,0.995,1.08,0.616
Calu-6,0.895,0.827,0.842,0.705,,,,,,,,,,0.9,0.891,0.938,0.856,0.613
ChaGo-K-1,0.983,1.02,1.17,0.793,0.524,0.46,0.561,0.551,0.554,0.525,0.609,0.529,0.486,0.898,0.937,1.15,1.02,0.998
EBC-1,0.477,0.491,0.372,0.296,,,,,,,,,,0.1,0.107,0.102,0.112,0.0941
EKVX,1.02,1.01,1.15,0.894,0.336,0.37,0.32,0.333,0.36,0.353,0.319,0.371,0.331,0.83,0.779,0.929,0.819,1.34
EMC-BAC-2,1.19,1.11,1.21,1.16,0.976,0.875,0.948,0.892,0.918,1.04,1,,0.921,0.964,0.979,1.06,0.933,1.1
EPLC-272H,1.33,1.03,1.23,0.956,0.384,0.373,0.382,0.342,0.371,0.376,0.426,0.437,0.389,0.777,0.718,0.81,0.688,0.888
H3255,0.524,0.489,0.631,0.4,0.601,0.571,0.668,0.525,0.514,0.705,0.794,0.609,0.622,0.902,0.806,0.93,0.938,0.922
HARA,1.15,1.15,1.11,1.13,0.632,,0.536,0.574,0.624,0.572,,0.545,0.558,0.91,0.868,0.984,0.824,0.93
HCC-15,0.757,0.685,0.761,0.712,0.63,0.595,0.74,0.584,0.614,0.625,0.615,0.659,0.568,1,1.05,1.07,1.08,1.02
HCC-44,0.921,0.949,0.924,0.982,0.967,0.911,0.942,0.959,0.987,0.926,0.895,0.943,0.908,,,,,
HCC-78,0.825,0.862,0.893,0.687,0.726,0.589,0.819,0.71,0.644,0.708,0.723,0.63,0.655,0.55,0.533,0.589,0.539,0.532
HCC-366,1.08,1.03,1.17,1.02,0.369,0.284,0.351,0.327,0.358,0.302,0.43,0.348,0.351,0.927,0.976,0.961,0.759,0.963
